The test system of one assay is CDK12/13. The assay can be described thus: Immunoblotting of CDK12/13 in MDA-MB-231 cells (time course, negative control, series comparison). It is filed as cell-based, human. To be noted: 1 μM. How it is done: To further characterize the compound, we determined the half-degradation concentration (DC50) values of ZLC491 in MDA-MB-231 cells. […] We also treated MDA-MB-231 cells with 1 μM ZLC491 at various time points.
(A) Immunoblotting of CDK12 and CDK13 in MDA-MB-231 cells treated with increasing concentrations of ZLC491 for 15 h (left). Percent remaining CDK12 and CDK13 proteins were plotted for DC50 determination (right). Protein levels were quantified using ImageJ and normalized to corresponding α-tubulin, then plotted using Graphpad Prism 8.0. The data were representative of three independent experiments; (B) immunoblotting of CDK12 and CDK13 proteins in MDA-MB-231 cells treated with ZLC491 for various time points; immunoblotting of CDK12 and CDK13 in HCC38 (C) and MDA-MB-436 (D) cells treated with increasing concentrations of ZLC491 for 15 h. α-Tubulin was used as a loading control. TEXT PRINTED IN THE PICTURE: (A) ZLC491: MDA-MB-231: CDK12 DC50 = 0.032μM; MDA-MB-231: CDK13 DC50 = 0.028μM DOUBTS OF THE COPYIST ABOUT THIS PICTURE: ZLC491, CDK12 DC50: 0.032 read from small print, the digits 3 and 2 are uncertain / ZLC491, CDK13 DC50: 0.028 read from small print, the last digit may be 8, 6 or 3
Figure 4 ZLC491 induced CDK12/13 degradation in a CRBN- and proteasome-dependent fashion. […]
(A western blot detects proteins with antibodies after separation by electrophoresis.)

Assay [1] concerns DDR proteins (BRCA1, RAD51, ATM). As to the kind of experiment: Immunoblotting of DDR proteins in MDA-MB-231 cells. The assay is classed as cell-based, human. Conditions: MDA-MB-231, different doses, 48 h. How it is done: We next evaluated the effect of ZLC491 on the expression of DDR genes regulated by CDK12/13.
(A) Transcription level of DDR genes in MDA-MB-231 cells determined by RT-qPCR upon the treatment with vehicle or ZLC491 at different doses for 12 h, ROR1 was used as a negative control; (B) immunoblotting of DDR proteins in MDA-MB-231 cells after the treatment of ZLC491 at different doses for 48 h; (C) cell antiproliferative activity of ZLC491 in multiple TNBC cells as well as several noncancerous cells. Cells were treated with the compound for 5 days; (D,E) antiproliferative potency of cisplatin or olaparib alone or combined with ZLC491 at different doses in MDA-MB-231 cells for 5 days. Data are plotted using the percentage of absorbance relative to DMSO controls. (F) IC50 values and combination index (CI) in drug combination assay. In this model, CI scores estimate the interaction between the two drugs. If CI < 1, the drugs have a synergistic effect and if CI > 1, the drugs have an antagonistic effect. CI = 1 means the drugs have an additive effect. ^aThe drug combination in the table refers to the starting concentration of the two combined drugs, that would both go through serial dilution when treating cells. […]

As to `N#Cc1ccc(N[C@H]2CC[C@H](N(C(=O)NCc3ccccc3)c3ccc(N4CCN(C5CCN(c6cc7c(cc6F)C(=O)N(C6CCC(=O)NC6=O)C7=O)CC5)CC4)cc3)CC2)nc1` (some centres unmarked) [ZLC491, 3-Benzyl-1-((1r,4r)-4-((5-cyanopyridin-2-yl)amino)cyclohexyl)-1-(4-(4-(1-(2-(2,6-dioxopiperidin-3-yl)-6-fluoro-1,3-dioxoisoindolin-5-yl)piperidin-4-yl)piperazin-1-yl)phenyl)urea], the “time at which significant reduction of CDK12/13 is observed” value with CDK12/13 is no more than 4 h. For the same compound, the “protein levels of DDR-relative proteins (BRCA1, RAD51, ATM)” value in assay [1] is listed as “reduced”.

(Values after publication PMC11513923, “Discovery of ZLC491 as a Potent, Selective, and Orally Bioavailable CDK12/13 PROTAC Degrader” (Journal of Medicinal Chemistry, 2024).)
